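Protocol summary: plate cells (96-well), add compound at 5 concentrations, incubate 48 h, interpolate endpoints linearly. GI50 is the concentration that inhibits growth by half. TGI: total growth inhibition.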
Assays:
Assay in all cases: NCI tumour cell line growth inhibition, 48 h
[1] = tested on: 786-0 renal
[2] = tested on: T-47D breast
[3] = tested on: SF-268 CNS
[4] = tested on: MOLT-4 leukemia
[5] = tested on: UACC-62 melanoma
[6] = tested on: HOP-62 NSCLC
[7] = tested on: MCF7 breast
[8] = tested on: SNB-75 CNS
[9] = tested on: SK-MEL-5 melanoma
[10] = tested on: HCC-2998 colon
[11] = tested on: KM12 colon
[12] = tested on: OVCAR-4 ovarian
[13] = tested on: HCT-116 colon
[14] = tested on: M14 melanoma
[15] = tested on: A549 NSCLC
[16] = tested on: COLO 205 colon
[17] = tested on: SF-295 CNS
[18] = tested on: HL-60(TB) leukemia
[19] = tested on: HT29 colon
[20] = tested on: NCI/ADR-RES ovarian
[21] = tested on: RPMI-8226 leukemia
[22] = tested on: SW-620 colon
[23] = tested on: HCT-15 colon
[24] = tested on: CCRF-CEM leukemia
[25] = tested on: SK-MEL-2 melanoma
[26] = tested on: HOP-92 NSCLC
[27] = tested on: MALME-3M melanoma
[28] = tested on: RXF 393 renal
[29] = tested on: NCI-H226 lung
[30] = tested on: SR leukemia
[31] = tested on: ACHN renal
[32] = tested on: DU-145 prostate
[33] = tested on: OVCAR-5 ovarian
[34] = tested on: PC-3 prostate
[35] = tested on: TK-10 renal
[36] = tested on: CAKI-1 renal
[37] = tested on: SNB-19 CNS
[38] = tested on: MDA-MB-231 breast
[39] = tested on: OVCAR-8 ovarian
[40] = tested on: UACC-257 melanoma
[41] = tested on: EKVX NSCLC
[42] = tested on: K-562 leukemia
[43] = tested on: MDA-MB-435
[44] = tested on: LOX IMVI melanoma
[45] = tested on: U251 CNS
[46] = tested on: UO-31 renal
[47] = tested on: OVCAR-3 ovarian
[48] = tested on: NCI-H23 lung
[49] = tested on: NCI-H460 lung
[50] = tested on: BT-549 breast
[51] = tested on: SN12C renal
[52] = tested on: SF-539 CNS
[53] = tested on: HS 578T breast
[54] = tested on: IGROV1 ovarian
[55] = tested on: SK-MEL-28 melanoma
[56] = tested on: NCI-H522 lung
[57] = tested on: SK-OV-3 ovarian
[58] = tested on: A498 renal

Work on O=C(CN1CCN(c2cc3c(cc2F)c(=O)c(C(=O)O)cn3C2CC2)CC1)Nc1nc(-c2ccc(Cl)cc2)cs1 yielded a GI50 [1] of 4.24 µM, a TGI [1] greater than 100 µM and a GI50 [2] of 3.58 µM. The TGI [2] was greater than 100 µM, the GI50 [3] was 4.19 µM and the TGI [3] was greater than 100 µM. The GI50 [4] was 3.31 µM, the TGI [4] was greater than 100 µM and the GI50 [5] was 3.66 µM. The TGI [5] was greater than 100 µM, the GI50 [6] was 4.16 µM and the TGI [6] was greater than 100 µM. It also gave a GI50 [7] of 3.06 µM, a TGI [7] of 36.1 µM and a GI50 [8] of 3.71 µM. It also gave a TGI [8] greater than 100 µM, a GI50 [9] of 2.76 µM and a TGI [9] of 8.05 µM. For the same compound, the GI50 [10] was 5.17 µM, the TGI [10] was greater than 100 µM and the GI50 [11] was 3.69 µM. It also gave a TGI [11] greater than 100 µM, a GI50 [12] of 6.64 µM and a TGI [12] of 98.8 µM. The GI50 [13] was 3.37 µM, the TGI [13] was greater than 100 µM and the GI50 [14] was 4.54 µM. The TGI [14] was 28.6 µM, the GI50 [15] was 3.75 µM and the TGI [15] was greater than 100 µM. It also gave a GI50 [16] of 4.82 µM, a TGI [16] greater than 100 µM and a GI50 [17] of 2.77 µM. For the same compound, the TGI [17] was 29.6 µM, the GI50 [18] was 2.71 µM and the TGI [18] was 6.29 µM. For the same compound, the GI50 [19] was 3.43 µM, the TGI [19] was 29.4 µM and the GI50 [20] was 5.62 µM. It also gave a TGI [20] greater than 100 µM, a GI50 [21] of 3.21 µM and a TGI [21] greater than 100 µM. It also gave a GI50 [22] of 3.48 µM, a TGI [22] of 16.7 µM and a GI50 [23] of 3.23 µM. For the same compound, the TGI [23] was 23.7 µM, the GI50 [24] was 4.39 µM and the TGI [24] was greater than 100 µM. It also gave a GI50 [25] of 3.12 µM, a TGI [25] of 21 µM and a GI50 [26] of 2.73 µM. For the same compound, the TGI [26] was 7.91 µM, the GI50 [27] was 3.19 µM and the TGI [27] was 11.1 µM. It also gave a GI50 [28] of 4.72 µM, a TGI [28] greater than 100 µM and a GI50 [29] of 5 µM. It also gave a TGI [29] greater than 100 µM, a GI50 [30] of 3.58 µM and a TGI [30] of 53.1 µM. The GI50 [31] was 3.05 µM, the TGI [31] was greater than 100 µM and the GI50 [32] was 4.03 µM. For the same compound, the TGI [32] was 28.4 µM, the GI50 [33] was 8.66 µM and the TGI [33] was greater than 100 µM. For the same compound, the GI50 [34] was 3.36 µM, the TGI [34] was 29.9 µM and the GI50 [35] was 4.28 µM. For the same compound, the TGI [35] was greater than 100 µM, the GI50 [36] was 3.57 µM and the TGI [36] was greater than 100 µM. For the same compound, the GI50 [37] was 4.71 µM, the TGI [37] was greater than 100 µM and the GI50 [38] was 5.09 µM. The TGI [38] was 61 µM, the GI50 [39] was 3.26 µM and the TGI [39] was greater than 100 µM. For the same compound, the GI50 [40] was 3.94 µM, the TGI [40] was 22.2 µM and the GI50 [41] was 4.45 µM. For the same compound, the TGI [41] was greater than 100 µM, the GI50 [42] was 2.95 µM and the TGI [42] was greater than 100 µM. The GI50 [43] was 3.85 µM, the TGI [43] was 94 µM and the GI50 [44] was 3.39 µM. It also gave a TGI [44] of 19 µM, a GI50 [45] of 3.74 µM and a TGI [45] greater than 100 µM. The GI50 [46] was 2.96 µM, the TGI [46] was greater than 100 µM and the GI50 [47] was 3.51 µM. For the same compound, the TGI [47] was 17.3 µM, the GI50 [48] was 3.1 µM and the TGI [48] was greater than 100 µM. It also gave a GI50 [49] of 3.03 µM, a TGI [49] of 12.7 µM and a GI50 [50] of 3.85 µM. The TGI [50] was 60.3 µM, the GI50 [51] was 3.69 µM and the TGI [51] was greater than 100 µM. The GI50 [52] was 3.93 µM, the TGI [52] was greater than 100 µM and the GI50 [53] was 7.19 µM. The TGI [53] was 73.7 µM, the GI50 [54] was 7.91 µM and the TGI [54] was greater than 100 µM. It also gave a GI50 [55] of 3.02 µM, a TGI [55] of 45.8 µM and a GI50 [56] of 3.15 µM. It also gave a TGI [56] of 30.4 µM, a GI50 [57] of 3.24 µM and a TGI [57] of 19.1 µM.
COc1cccc(/C=N/NC(=S)NC2CC3CCC2C3)c1O (stereo unspecified) was tested, and the GI50 [1] was 19.5 µM, the TGI [1] was 39.6 µM and the GI50 [2] was 3.13 µM. The TGI [2] was 11.8 µM, the GI50 [3] was 5.84 µM and the TGI [3] was 21.5 µM. For the same compound, the GI50 [4] was 10.5 µM, the TGI [4] was 48.3 µM and the GI50 [5] was 10.8 µM. It also gave a TGI [5] of 50.1 µM, a GI50 [6] of 3.01 µM and a TGI [6] of 10 µM. The GI50 [7] was 4.74 µM, the TGI [7] was 27.1 µM and the GI50 [8] was 1.58 µM. The TGI [8] was 5.47 µM, the GI50 [9] was 13.9 µM and the TGI [9] was 77.4 µM. The GI50 [10] was 80.4 µM, the TGI [10] was greater than 100 µM and the GI50 [11] was 26.3 µM. For the same compound, the TGI [11] was greater than 100 µM, the GI50 [12] was 1.82 µM and the TGI [12] was 4.46 µM. The GI50 [13] was 4.01 µM, the TGI [13] was 15.8 µM and the GI50 [14] was 9.92 µM. It also gave a TGI [14] of 31.9 µM, a GI50 [15] of 4 µM and a TGI [15] of 15.9 µM. It also gave a GI50 [16] of 96.7 µM, a TGI [16] greater than 100 µM and a GI50 [17] of 4.63 µM. It also gave a TGI [17] of 18 µM, a GI50 [18] of 16.6 µM and a TGI [18] of 60.3 µM. For the same compound, the GI50 [19] was 30.1 µM, the TGI [19] was 91.4 µM and the GI50 [20] was 3.16 µM. For the same compound, the TGI [20] was 15.1 µM, the GI50 [21] was 11.1 µM and the TGI [21] was 49.7 µM. The GI50 [22] was 13.7 µM, the TGI [22] was greater than 100 µM and the GI50 [23] was 1.07 µM. The TGI [23] was greater than 100 µM, the GI50 [24] was 6.65 µM and the TGI [24] was 38.7 µM. For the same compound, the GI50 [25] was 18.2 µM, the TGI [25] was 34.9 µM and the GI50 [58] was 3.18 µM. It also gave a TGI [58] of 12.9 µM, a GI50 [27] of 5.65 µM and a TGI [27] of 20 µM. For the same compound, the GI50 [28] was 13 µM, the TGI [28] was 28.1 µM and the GI50 [29] was 2.38 µM. For the same compound, the TGI [29] was 10.9 µM, the GI50 [30] was 3.08 µM and the TGI [30] was 10.8 µM. The GI50 [31] was 2.5 µM, the TGI [31] was 8.14 µM and the GI50 [32] was 9.79 µM. The TGI [32] was 22.8 µM, the GI50 [33] was 44.9 µM and the TGI [33] was greater than 100 µM. It also gave a GI50 [34] of 8.5 µM, a TGI [34] of 27 µM and a GI50 [35] of 16.4 µM. It also gave a TGI [35] of 31.5 µM, a GI50 [36] of 3.33 µM and a TGI [36] of 15.9 µM. For the same compound, the GI50 [37] was 14.6 µM, the TGI [37] was 35.9 µM and the GI50 [38] was 4.88 µM. For the same compound, the TGI [38] was 21.9 µM, the GI50 [39] was 5.2 µM and the TGI [39] was 18.5 µM. It also gave a GI50 [40] of 15.1 µM, a TGI [40] of 38.7 µM and a GI50 [42] of 7.62 µM. The TGI [42] was greater than 100 µM, the GI50 [43] was 16.1 µM and the TGI [43] was 78.9 µM. The GI50 [44] was 5.09 µM, the TGI [44] was 18 µM and the GI50 [45] was 7.57 µM. It also gave a TGI [45] of 26.7 µM, a GI50 [46] of 2.3 µM and a TGI [46] of 9.93 µM. The GI50 [47] was 3.07 µM, the TGI [47] was 9.45 µM and the GI50 [48] was 15.1 µM. It also gave a TGI [48] of 45.4 µM, a GI50 [49] of 2.47 µM and a TGI [49] of 8.43 µM. For the same compound, the GI50 [50] was 14.5 µM, the TGI [50] was 57.3 µM and the GI50 [51] was 5.09 µM. The TGI [51] was 22.9 µM, the GI50 [52] was 10.8 µM and the TGI [52] was 29.3 µM. The GI50 [53] was 4.27 µM, the TGI [53] was 22.2 µM and the GI50 [54] was 10 µM. For the same compound, the TGI [54] was 35.1 µM, the GI50 [55] was 13.1 µM and the TGI [55] was 33.5 µM. The GI50 [56] was 11.5 µM, the TGI [56] was 37.6 µM and the GI50 [57] was 4.46 µM. For the same compound, the TGI [57] was 14.4 µM.

Source: PubChem BioAssay (NCI)
